# Measured values reported in patent publication US20230134760A1, “CAR AND NRF2 DUAL ACTIVATOR AGENTS FOR CYCLOPHOSPHAMIDE-BASED AND DOXORUBICIN-BASED TREATMENTS OF CANCER” (priority 2020, published 2023).
# How the values were obtained:
# [1] = tested on: HO-1; experiment: HO-1 expression in MDA-MB-231 cells; format: cell-based; settings: MDA-MB-231, 10 μM, 24 hours
# Experimental: Immortalized triple negative breast cancer cell lines MDA-MB-231 and BT549 were obtained from ATCC (Rockville, Md.). Additionally, the h9c2 cell line was purchased from ATCC (Rockville, Md.). […] Human iPSC-derived cardiomyocytes were maintained in Mtesr plus and supplemented according to protocol. These cells were treated for 2 hrs or an overnight as indicated. Following a 2 hr pretreatment, cells were co-treated with DOX at indicated concentrations for 6 or 22 hours. Following the overnight treatments, RNA or protein was isolated. HPH were seeded in collagen-coated 24 well plates and pretreated for 24 hrs. BT549 were seeded on inverted coverslips. After a 24 hr pretreatment, hepatocytes were co-administered as indicated and coverslips were inserted. The cell lines were used for less than 60 passages. After 24 h treatment, HPH, BT549, MDA-MB-231, and H9c2 cells were washed and a phenol-chloroform extraction was used to isolate total RNA with the TRIzol reagent (ThermoFisher, Rockford, Ill.). Reverse transcription was performed on extracted RNA (1 μg) to produce cDNA using the High Capacity cDNA Archive kit according to manufacturer's instructions (Applied Biosystems, Foster, Calif.). […] Quantification of expression changes was done by the 2^ΔΔCt method, normalizing to GAPDH as the housekeeping gene and determining the fold change compared to control values (n=3). […]
# [2] = tested on: H9c2 cells; experiment: Cell viability assay, DOX-induced toxicity in H9c2 cells; format: cell-based, rat
# Experimental: H9c2 cells were seeded 0.8×10^5 in 24-well plates. Following cell attachment, a 2 h pre-treatment with vehicle control (0.1% DMSO), SFN (2.5 μM) or DL7076 (1 μM, 5 μM, or 10 μM) was done followed by doxorubicin (2.5 μM) exposure for 22 h. Co-culture cells were assembled and treated with cyclophosphamide and doxorubicin as indicated. A Cell Counting Kit-8 (Enzo) assay was carried out. Cell viability was described as a percent of vehicle control (0.1% DMSO). Cardiomyocyte, human iPSC-derived cardiomyocytes, and BT549 viability was determined with a 1 hr incubation of 6% CCK8 in WEM.
# [3] = tested on: MDA-MB-231 cells; experiment: Oxidative stress imaging (DFDA) in MDA-MB-231 cells; format: cell-based; settings: MDA-MB-231, DL7076 5 μM + DOX
# [4] = tested on: BT549 cells; experiment: Multi-organ co-culture (BT549/HPH/H9c2), BT549 viability; format: cell-based; settings: DL7076 10 μM
# Experimental: (§1) Additionally, HPH were cultured in collagen-coated 6-well plates and pre-treated as described in the previous co-culture system. BT549 and H9c2 cells were plated on similar modified coverslips 0.8×10^5 cells and allowed to attach for 24 hours during hepatocyte pre-treatment. […] Following pre-treatment, BT549 coverslips were inserted adjacent to H9c2 coverslips over the sandwich cultured HPH as depicted in FIG. 43a. […] Both BT549 and H9c2 cells were harvested at indicated time points and assess for viability, apoptosis, and DNA damage as detailed further. H9c2 cells were seeded 0.8×10^5 in 24-well plates. […] A Cell Counting Kit-8 (Enzo) assay was carried out. Cell viability was described as a percent of vehicle control (0.1% DMSO).
# [5] = tested on: H9c2 cells; experiment: Multi-organ co-culture (BT549/HPH/H9c2), H9c2 viability; format: cell-based, rat; settings: DL7076 10 μM
# Experimental: as §1
# [6] = tested on: HO-1; experiment: HO-1 expression in human iPSC-derived cardiomyocytes; format: cell-based; settings: human iPSC-derived cardiomyocytes, 1, 5, 10 μM
# Experimental: Immortalized triple negative breast cancer cell lines MDA-MB-231 and BT549 were obtained from ATCC (Rockville, Md.). Additionally, the h9c2 cell line was purchased from ATCC (Rockville, Md.). […] Human iPSC-derived cardiomyocytes were maintained in Mtesr plus and supplemented according to protocol. These cells were treated for 2 hrs or an overnight as indicated. Following a 2 hr pretreatment, cells were co-treated with DOX at indicated concentrations for 6 or 22 hours. Following the overnight treatments, RNA or protein was isolated. HPH were seeded in collagen-coated 24 well plates and pretreated for 24 hrs. BT549 were seeded on inverted coverslips. After a 24 hr pretreatment, hepatocytes were co-administered as indicated and coverslips were inserted. The cell lines were used for less than 60 passages. After 24 h treatment, HPH, BT549, MDA-MB-231, and H9c2 cells were washed and a phenol-chloroform extraction was used to isolate total RNA with the TRIzol reagent (ThermoFisher, Rockford, Ill.). Reverse transcription was performed on extracted RNA (1 μg) to produce cDNA using the High Capacity cDNA Archive kit according to manufacturer's instructions (Applied Biosystems, Foster, Calif.). […] Quantification of expression changes was done by the 2^ΔΔCt method, normalizing to GAPDH as the housekeeping gene and determining the fold change compared to control values (n=3).
structure (smiles),measurement,setting,value
"O=C(NCCN=C=S)c1c(-c2ccc3ccccc3c2)nc2sccn12 [DL7076, N-(2-Isothiocyanatoethyl)-6-(naphthalen-2-yl)imidazo[2,1-b]thiazole-5-carboxamide]",HO-1 induction,[1],1.4 fold
same,cytotoxicity without DOX,"[2]; H9c2, 1, 5, 10 μM",no cytotoxicity
same,reversal of DOX-induced cardiotoxicity (viability),"[2]; H9c2, 2 h pretreatment, 22 h cotreatment with DOX 2.5 μM",concentration dependent reversal in the DOX-induced cardiotoxicity
same,ROS with cotreatment,[3],significant ROS without reduction
same,CPA/DOX cytotoxicity in BT549 cells,[4],selectively enhanced CPA/DOX regimen cytotoxicity in BT549 cells
same,H9c2 viability during CPA/DOX treatment,[5],h9c2 cardiomyocyte viability can be protected during CPA/DOX treatment
same,HO-1 expression,[6],concentration-dependently induced
